Experimental data reported in patent US12139487B2, “Compounds and uses thereof” (Foghorn Therapeutics Inc., priority 2022, dated 2024).

Assays:
BRM = target: T1, BRM (Homo sapiens, UniProt P51531); assay: ATPase catalytic activity assay (ADP-Glo), BRM; type: biochemical; conditions: Table 10; for Ratio (BRG1 IC50 (μM) divided by BRM IC50 (μM)): ATPase assay, selectivity BRG1/BRM; for IC50: ATPase catalytic activity assay (ADP-Glo)
T1 construct: made in house; host or cells: High Five insect cells
T1 sequence (P51531 whole entry): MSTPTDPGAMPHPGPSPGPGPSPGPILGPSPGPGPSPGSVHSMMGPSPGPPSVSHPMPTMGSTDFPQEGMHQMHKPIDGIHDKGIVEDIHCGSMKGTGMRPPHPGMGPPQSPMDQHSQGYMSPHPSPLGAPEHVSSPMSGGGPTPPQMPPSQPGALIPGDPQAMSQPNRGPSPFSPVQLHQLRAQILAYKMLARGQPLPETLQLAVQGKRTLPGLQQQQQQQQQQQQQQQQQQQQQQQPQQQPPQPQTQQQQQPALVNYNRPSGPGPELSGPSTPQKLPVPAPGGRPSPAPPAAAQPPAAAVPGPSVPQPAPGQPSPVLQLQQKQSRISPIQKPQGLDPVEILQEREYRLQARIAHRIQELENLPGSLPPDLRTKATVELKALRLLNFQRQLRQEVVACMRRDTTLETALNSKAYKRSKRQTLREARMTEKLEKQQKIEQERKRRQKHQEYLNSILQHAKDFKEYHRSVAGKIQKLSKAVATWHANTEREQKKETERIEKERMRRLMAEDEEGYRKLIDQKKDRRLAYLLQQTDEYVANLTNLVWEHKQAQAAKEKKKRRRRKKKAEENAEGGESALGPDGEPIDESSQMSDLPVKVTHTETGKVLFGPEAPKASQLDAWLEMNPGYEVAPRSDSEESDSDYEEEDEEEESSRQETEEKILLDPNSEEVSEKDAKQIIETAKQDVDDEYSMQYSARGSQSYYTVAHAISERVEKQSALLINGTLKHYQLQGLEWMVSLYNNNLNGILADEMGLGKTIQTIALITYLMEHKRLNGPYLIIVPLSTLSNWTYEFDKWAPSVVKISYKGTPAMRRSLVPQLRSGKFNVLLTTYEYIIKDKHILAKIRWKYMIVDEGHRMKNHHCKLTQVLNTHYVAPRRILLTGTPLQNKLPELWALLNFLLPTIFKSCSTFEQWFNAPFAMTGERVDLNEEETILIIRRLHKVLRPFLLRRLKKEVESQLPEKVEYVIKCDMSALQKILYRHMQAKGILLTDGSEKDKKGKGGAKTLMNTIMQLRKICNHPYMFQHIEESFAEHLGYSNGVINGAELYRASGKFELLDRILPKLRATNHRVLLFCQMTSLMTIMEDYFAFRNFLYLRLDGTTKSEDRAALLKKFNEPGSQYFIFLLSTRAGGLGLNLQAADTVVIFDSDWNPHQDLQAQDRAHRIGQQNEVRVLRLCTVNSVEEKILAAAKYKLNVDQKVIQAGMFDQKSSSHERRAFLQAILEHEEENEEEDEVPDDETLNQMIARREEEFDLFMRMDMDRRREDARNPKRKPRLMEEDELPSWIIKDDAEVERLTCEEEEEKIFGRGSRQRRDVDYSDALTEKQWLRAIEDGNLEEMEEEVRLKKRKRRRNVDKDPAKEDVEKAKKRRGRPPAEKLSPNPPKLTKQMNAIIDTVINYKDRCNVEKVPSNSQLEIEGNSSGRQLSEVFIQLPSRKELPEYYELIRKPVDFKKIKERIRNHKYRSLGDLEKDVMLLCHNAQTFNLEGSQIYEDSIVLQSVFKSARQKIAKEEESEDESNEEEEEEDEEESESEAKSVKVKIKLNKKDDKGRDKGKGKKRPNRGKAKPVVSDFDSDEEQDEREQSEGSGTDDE
In short: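 Reaction holds 30 nM BRM, 20 nM salmon sperm DNA and 400 μM ATP in 20 mM Tris pH 8, 20 mM MgCl2, 50 mM NaCl, 0.1% Tween-20, 1 mM DTT. Incubated 1 h at room temperature. ADP formed is detected by ADP-Glo luminescence.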

BRG-1 = target: T2, BRG-1 (Homo sapiens, UniProt P51532); assay: ATPase catalytic activity assay (ADP-Glo), BRG-1; type: biochemical; conditions: Table 10, read-out: BRG1 IC50
T2 construct: made in house; host or cells: High Five insect cells
T2 sequence (P51532 whole entry): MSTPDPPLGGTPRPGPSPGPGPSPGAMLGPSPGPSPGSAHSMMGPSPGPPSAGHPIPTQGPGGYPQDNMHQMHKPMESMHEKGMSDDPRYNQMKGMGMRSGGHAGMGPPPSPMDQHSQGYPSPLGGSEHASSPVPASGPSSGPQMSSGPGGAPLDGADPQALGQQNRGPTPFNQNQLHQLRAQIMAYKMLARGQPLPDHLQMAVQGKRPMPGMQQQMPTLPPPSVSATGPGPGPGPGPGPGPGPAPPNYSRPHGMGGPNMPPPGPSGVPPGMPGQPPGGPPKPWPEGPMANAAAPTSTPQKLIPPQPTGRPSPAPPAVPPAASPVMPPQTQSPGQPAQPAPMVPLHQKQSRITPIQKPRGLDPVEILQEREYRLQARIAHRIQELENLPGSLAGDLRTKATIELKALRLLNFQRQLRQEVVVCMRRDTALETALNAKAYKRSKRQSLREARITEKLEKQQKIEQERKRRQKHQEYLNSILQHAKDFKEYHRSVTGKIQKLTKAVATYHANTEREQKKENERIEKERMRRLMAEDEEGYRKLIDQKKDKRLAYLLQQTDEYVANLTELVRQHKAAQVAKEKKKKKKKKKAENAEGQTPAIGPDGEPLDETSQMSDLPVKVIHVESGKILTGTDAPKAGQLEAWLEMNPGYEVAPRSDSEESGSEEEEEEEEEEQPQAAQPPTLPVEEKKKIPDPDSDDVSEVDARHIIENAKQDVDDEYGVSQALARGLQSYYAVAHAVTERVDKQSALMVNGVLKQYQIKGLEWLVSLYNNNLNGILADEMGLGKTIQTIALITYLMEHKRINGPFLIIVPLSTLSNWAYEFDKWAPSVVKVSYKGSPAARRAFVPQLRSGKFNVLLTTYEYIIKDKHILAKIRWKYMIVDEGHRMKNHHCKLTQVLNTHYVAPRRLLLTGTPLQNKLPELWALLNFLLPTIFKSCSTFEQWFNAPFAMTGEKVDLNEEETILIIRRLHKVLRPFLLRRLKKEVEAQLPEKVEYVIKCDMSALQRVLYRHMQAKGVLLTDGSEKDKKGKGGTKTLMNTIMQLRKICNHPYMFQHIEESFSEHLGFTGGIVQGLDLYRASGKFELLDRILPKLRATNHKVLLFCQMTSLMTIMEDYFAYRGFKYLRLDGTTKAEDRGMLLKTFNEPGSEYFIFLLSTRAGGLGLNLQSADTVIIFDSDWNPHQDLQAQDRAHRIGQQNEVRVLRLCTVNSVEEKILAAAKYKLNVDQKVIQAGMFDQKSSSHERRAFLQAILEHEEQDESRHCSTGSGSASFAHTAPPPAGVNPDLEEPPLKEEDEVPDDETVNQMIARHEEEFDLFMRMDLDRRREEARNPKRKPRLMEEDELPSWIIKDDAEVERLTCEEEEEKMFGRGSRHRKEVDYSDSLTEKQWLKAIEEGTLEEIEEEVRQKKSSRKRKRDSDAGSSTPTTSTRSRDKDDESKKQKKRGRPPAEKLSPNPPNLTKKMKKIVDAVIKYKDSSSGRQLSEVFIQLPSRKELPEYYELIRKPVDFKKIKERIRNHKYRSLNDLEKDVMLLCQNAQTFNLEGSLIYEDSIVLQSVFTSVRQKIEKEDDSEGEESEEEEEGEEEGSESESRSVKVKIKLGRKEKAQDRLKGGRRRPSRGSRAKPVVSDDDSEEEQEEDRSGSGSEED
In short: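 Biochemical ADP-Glo assay, BRG-1. Post-reaction: ATP depletion reagent, 40 min RT; ADP→ATP conversion/detection reagent, 60 min RT; luminescence read on plate luminometer.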

SMILES	Ratio (BRG1 IC50 (μM) divided by BRM IC50 (μM)) (BRM)	IC50 (BRM) [nM]	IC50 (BRG-1) [nM]
CC(C)c1cnc2c(c1)OCCN2c1ccc2cnc(CNC(=O)c3cc(F)c4c(c3)S(=O)(=O)[C@@H](F)CCO4)cc2n1 [Compound 157]	18.45	5.1	96.8
COc1ccc(-c2ccc3cnc(CNC(=O)c4cc(Cl)c5c(c4)S(=O)(=O)[C@@H](F)COC5)cc3n2)nc1[C@@H]1CC1(F)F [Compound 294]	35.16	9.8	344
COc1nc(C(F)F)ccc1-c1ccc2cnc(CNC(=O)c3cc(F)c4c(c3)S(=O)(=O)[C@@H](F)COC4)c(F)c2n1 [Compound 167]	10.82	5.3	56.7
C[C@@H]1CN(c2cccc(-c3ccc4cnc(CNC(=O)c5cc(Br)c6c(c5)S(=O)(=O)[C@@H](F)CCO6)cc4n3)n2)C[C@H](C)O1 [Compound 255]	23.96	8.1	207
O=C(NCc1cc2nc(N3CCOc4cc(C5CC5)cnc43)ccc2cn1)c1cc(F)c2c(c1)S(=O)(=O)[C@@H](F)COC2 [Compound 8]	14.89	1.3	22.3
O=C(NCc1cc2nc(N3CCOc4cc(C5(C(F)F)CC5)cnc43)ccc2cn1)c1cc(F)c2c(c1)S(=O)(=O)[C@@H](F)CCO2 [Compound 70]	12.79	2.7	39.6
O=C(NCc1cc2nc(N3CCOc4cc(N5CCC5)cnc43)ccc2cn1)c1ccc2c(c1)S(=O)(=O)[C@@H](F)CCO2 [Compound 187]	13.32	5.8	76.6
O=C(NCc1cc2cc(-c3ccc(OC(F)F)c(C4CC4)n3)ccc2cn1)c1cc(F)c2c(c1)S(=O)(=O)[C@@H](F)CCO2 [Compound 179]	10.62	5.6	59.9
[2H]C1([2H])OC([2H])([2H])[C@H](F)S(=O)(=O)c2cc(C(=O)NCc3cc4nc(N5CCOc6cc(N7CC(F)C7)cnc65)ccc4cn3)cc(F)c21 [Compound 56]		2.5	58.2
COc1nc([C@H](C)F)ccc1-c1ccc2cnc(CNC(=O)c3cc(F)c4c(c3)S(=O)(=O)[C@@H](F)CCO4)cc2n1 [Compound 173]	30.21	5.5	178
C[C@@H]1CN(c2cccc(-c3ccc4cnc(CNC(=O)c5cc(C(F)F)c6c(c5)S(=O)(=O)[C@@H](F)CCO6)cc4n3)n2)C[C@H](C)O1 [Compound 64]	11.59	2.6	29.8
C[C@@H]1CN(c2cccc(-c3ccc4cnc(CNC(=O)c5cc(F)c6c(c5)S(=O)(=O)[C@H](F)CO[C@@H]6C)cc4n3)n2)C[C@H](C)O1 [Compound 222]	11.79	7	79.8
CCOCc1cnc2c(c1)OCCN2c1ccc2cnc(CNC(=O)c3cc(F)c4c(c3)S(=O)(=O)[C@@H](F)CCO4)cc2n1 [Compound 154]	15.21	5	68
O=C(NCc1cc2nc(N3CCOc4cc([C@H]5CC5(F)F)cnc43)ccc2cn1)c1cc(F)c2c(c1)S(=O)(=O)[C@@H](F)COC2 [Compound 116]	12.04	4	48.3
O=C(NCc1cc2nc(N3CCOc4ccc([C@@H]5C[C@H]5F)nc43)ccc2cn1)c1cc(F)c2c(c1)S(=O)(=O)[C@@H](F)CCO2 [Compound 156]	23.13	5	97
Cc1cc2c(-c3ccc4cnc(CNC(=O)c5cc(F)c6c(c5)S(=O)(=O)[C@@H](F)CCO6)cc4n3)cccc2n1C [Compound 161]	9.63	5.1	49.3
O=C(NCc1cc2nc(N3CCCc4sc(C(F)F)nc43)ccc2cn1)c1cc(F)c2c(c1)S(=O)(=O)[C@@H](F)CCO2 [Compound 217]	9.68	6.5	63.4
COc1nc([C@H](F)C(F)F)ccc1-c1ccc2cnc(CNC(=O)c3cc(F)c4c(c3)S(=O)(=O)[C@@H](F)CCO4)cc2n1 [Compound 287]	11.77	9.6	113
O=C(NCc1cc2nc(N3CCOc4ccc(C(F)F)nc43)ccc2cn1)c1cc(F)c2c(c1)S(=O)(=O)[C@@H](F)CCO2 [Compound 185]	21.73	5.7	110
[2H]C1([2H])OC[C@H](F)S(=O)(=O)c2cc(C(=O)NCc3cc4nc(N5CCOc6ccc(C(F)F)nc65)ccc4cn3)cc(F)c21 [Compound 140]	17.66	4.7	83.1
C[C@@H]1CN(c2cccc(-c3ccc4nnc(CNC(=O)c5cc(Cl)c6c(c5)S(=O)(=O)[C@@H](F)CCO6)cc4c3)n2)C[C@H](C)O1 [Compound 231]	14.03	7.2	102
O=C(NCc1cc2nc(N3CCCc4ccc(C(F)F)nc43)ccc2cn1)c1cc(Cl)c2c(c1)S(=O)(=O)[C@@H](F)CCO2 [Compound 272]	23.60	8.9	199
O=C(NCc1cc2nc(N3CCOc4cc(OC(F)F)cnc43)ccc2cn1)c1cc(F)c2c(c1)S(=O)(=O)[C@@H](F)CCO2 [Compound 180]	18.29	5.7	104
[2H]C([2H])([2H])Oc1nc(C(F)F)ccc1-c1ccc2cnc(CNC(=O)c3cc(F)c4c(c3)S(=O)(=O)[C@@H](F)COC4)cc2n1 [Compound 103]	12.05	3.6	43.4
O=C(NCc1cc2nc(N3CCCc4cc(OC(F)F)cnc43)ccc2cn1)c1cc(F)c2c(c1)S(=O)(=O)[C@@H](F)CCO2 [Compound 229]	10.03	7.2	72.3
O=C(NCc1cc2nc(N3CCOc4cc(F)c(C(F)F)nc43)ccc2cn1)c1cc(F)c2c(c1)S(=O)(=O)[C@@H](F)CCO2 [Compound 304]	15.65	10.1	158
COCCOc1ccnc2c1CCCN2c1ccc2cnc(CNC(=O)c3cc(F)c4c(c3)S(=O)(=O)[C@@H](F)CCO4)cc2n1 [Compound 189]	16.84	5.8	107
O=C(NCc1cc2nc(N3CCOc4ccc([C@H]5C[C@@H]5C(F)F)nc43)ccc2cn1)c1cc(F)c2c(c1)S(=O)(=O)[C@@H](F)COC2 [Compound 26]	21.77	1.7	39.1
O=C(NCc1cc2nc(-c3cccc(N4CCC4)n3)ccc2cn1)c1cc(F)c2c(c1)S(=O)(=O)[C@@H](F)CCO2 [Compound 117]	21.61	4	87.1
Cc1cc(C(=O)NCc2cc3nc(-c4ccc(OC(F)F)c(C5CC5)n4)ccc3cn2)cc2c1OCC[C@H](F)S2(=O)=O [Compound 324]	22.15	16.1	357
